The source of these data is BindingDB's records for doi:10.1021/ml300172p (2012).

The nature of assay [1]: Inhibition of human Shh-induced mouse C3H10T1/2 cell differentiation after 48 hrs by alkaline phosphatase reporter assay. On the technique in general: In a reporter assay the amount or activity of a reporter protein is the signal.
Assay [2] can be described thus: Inhibition of Smo in mouse C3H10T1/2 cells assessed as inhibition of human Shh-induced cell differentiation after 48 hrs by alkaline phosphatase reporter assay.

Turning to `CC1=C2C[C@H]3[C@@H](CC=C4C[C@@H](O)CC[C@@]43C)[C@@H]2CC[C@]12O[C@@H]1C[C@H](C)CN[C@H]1[C@H]2C`, the half-maximal inhibitory concentration (IC50) (as a rule, the concentration that gives 50% inhibition) in assay [1] worked out at 600 nM.
With `C[C@@H]1NC(=O)[C@H](CC(=O)NCc2ccc(Cl)cc2)C/C=C/CCC(=O)O[C@@H]1c1ccccc1`, in assay [2], the half-maximal inhibitory concentration (IC50) was determined as 15 µM.
Same read-out and setting: as for `C[C@H]1NC(=O)[C@H](CC(=O)NCc2ccc(Cl)cc2)C/C=C/CCC(=O)O[C@@H]1c1ccccc1`, the figure is 11 µM.
On the same count and under the same terms, for `O=C(C[C@@H]1C/C=C/CCC(=O)OC[C@@H]2CCCN2C1=O)NCc1ccc(Cl)cc1` the value was 15 µM.
Turning to `O=C(C[C@@H]1C/C=C/CCC(=O)N[C@H](c2ccccc2)COC1=O)NCc1ccc(Cl)cc1`, the IC50 in assay [2] was determined as 5 µM.
Take `O=C(C[C@@H]1C/C=C/CCC(=O)N[C@@H]2c3ccccc3C[C@@H]2OC1=O)NCc1ccc(Cl)cc1`: in assay [2], the IC50 is greater than 25 µM.
The same measure, in the same setting: as for `C[C@H]1[C@@H](c2ccccc2)OC(=O)CC/C=C/C[C@@H](CC(=O)NCc2ccc(Cl)cc2)C(=O)N1C`, the figure is 8 µM; as for `O=C(C[C@@H]1C/C=C/CCC(=O)N[C@@H](c2ccccc2)COC1=O)NCc1ccc(Cl)cc1`, 20 µM.
Still for that read-out and setting: as for `C[C@H]1C/C=C/C[C@@H](CC(=O)NCc2ccc(Cl)cc2)C(=O)OC[C@@H](c2ccccc2)NC1=O`, the figure is 8 µM; as for `O=C(C[C@@H]1C/C=C/C[C@H](Cc2ccccc2)C(=O)N[C@H](c2ccccc2)COC1=O)NCc1ccc(Cl)cc1`, 6 µM.
For the compound `CC(C)N[C@H]1C/C=C/C[C@@H](CC(=O)NCc2ccc(Cl)cc2)C(=O)NC[C@@H](c2ccccc2)OC1=O`, the IC50 in assay [2] was greater than 25 µM.
The same measure, in the same setting: for `C[C@H]1C/C=C\C[C@@H](CC(=O)NCc2ccc(Cl)cc2)C(=O)OC[C@@H](c2ccccc2)NC1=O` the value was 4 µM; for `C[C@H]1[C@@H](c2ccccc2)OC(=O)CCCCC[C@@H](CC(=O)NCc2ccc(Cl)cc2)C(=O)N1C`, 11 µM; for `C=CCCC(=O)O[C@@H](CNC(=O)[C@@H](CC=C)CC(=O)NCc1ccc(Cl)cc1)c1ccccc1`, greater than 25 µM.
For the compound `C[C@@H]1C/C=C/CCC(=O)N[C@H](c2ccccc2)COC1=O`, the IC50 in assay [2] is greater than 25 µM.
On the same count and under the same terms, for `CC(=O)N[C@@H]1C/C=C/CCC(=O)N[C@H](c2ccccc2)COC1=O` the value was greater than 25 µM; for `CN1CCN(C(=O)C[C@@H]2C/C=C/CCC(=O)O[C@H](c3ccccc3)CNC2=O)CC1`, greater than 25 µM.
The same measure, in the same setting: as for `O=C(C[C@@H]1C/C=C/CCC(=O)O[C@H](c2ccccc2)CNC1=O)NCCCC(F)(F)F`, the figure is 4 µM; as for `CC(C)(C)OC(=O)C[C@@H]1C/C=C/CCC(=O)N[C@H](c2ccccc2)COC1=O`, 7 µM; as for `CN1C[C@@H](c2ccccc2)OC(=O)CC/C=C/C[C@@H](Cc2ccc(Cl)cc2)C1=O`, 8 µM.
The same measure, in the same setting: for `O=C(C[C@@H]1C/C=C/CCC(=O)O[C@H](c2ccccc2)CNC1=O)NCc1cccc(Cl)c1` the value was 5 µM; for `O=C(CN1C/C=C/CCC(=O)N[C@H](c2ccccc2)COC1=O)NCc1ccc(Cl)cc1`, greater than 25 µM; for `O=C(C[C@@H]1C/C=C/CCC(=O)N[C@H](C2CCCCC2)COC1=O)NCc1ccc(Cl)cc1`, 5 µM.
Take `O=C(C[C@@H]1C/C=C/CCC(=O)N[C@H](Cc2ccccc2)COC1=O)NCc1ccc(Cl)cc1`: in assay [2], the IC50 is 4 µM.
The same measure, in the same setting: for `CCCC[C@@H]1COC(=O)[C@H](CC(=O)NCc2ccc(Cl)cc2)C/C=C/CCC(=O)N1` the value was greater than 10 µM; for `CC(C)[C@@H]1COC(=O)[C@H](CC(=O)NCc2ccc(Cl)cc2)C/C=C/CCC(=O)N1`, 23 µM; for `O=C(C[C@@H]1C/C=C/CCC(=O)N[C@H](c2ccc(F)cc2)COC1=O)NCc1ccc(Cl)cc1`, 5 µM.
On to `O=C(C[C@@H]1C/C=C/CCC(=O)N[C@H](c2ccc(Cl)cc2)COC1=O)NCc1ccc(Cl)cc1`, for which the IC50 in assay [2] amounted to 0.6 µM.
Take `O=C(C[C@@H]1C/C=C/CCC(=O)OCCNC1=O)NCc1ccc(Cl)cc1` [(S,E)-N-(4-chlorobenzyl)-2-(5,12-dioxo-1-oxa-4-azacyclododec-8-en-6-yl)acetamide]: the concentration for half-maximal inhibition (IC50) in assay [2] was greater than 25 µM.
`O=C(C[C@@H]1C/C=C/CCC(=O)O[C@H](c2ccccc2)CNC1=O)NCc1ccc(Cl)cc1` [N-(4-chlorobenzyl)-2-((2R,6S,E)-5,12-dioxo-2-phenyl-1-oxa-4-azacyclododec-8-en-6-yl)acetamide] had a half-inhibitory concentration (IC50) in assay [1] greater than 25000 nM.
